# Values quoted from earlier work in patent publication US20180140599A1, “PREVENTION AND/OR TREATMENT OF CONTRAST-INDUCED ACUTE KIDNEY INJURY” (Saghmos Therapeutics, Inc., priority 2016, published 2018).
# Tested on: patients with high serum creatinine levels undergoing coronary angiography/angioplasty
# Details: four published Phase 2 trials; compared with isotonic saline
compound,measurement,value
COc1ccc(CN2CCNCC2)c(OC)c1OC [Trimetazidine],reducing the risk of contrast-induced nephropathy (CIN),more effective than isotonic saline in reducing the risk of contrast-induced nephropathy (CIN)
